Tests used:
[1] = system: Nestin-GFP or Col2.3 kb GFP mice; assay: Enumeration of Nestin-GFP+ MSC and Col2.3 kb GFP+ osteoblastic cells in bones; format: in vivo; details: warfarin 14 days
From the text: 7 to 10 week old C57BL6/N (CD45.2) or SJL (CD45.1; B6.SJL-Ptprca Pepcb/BoyJ), Col1a1 2.3 kb-GFP (kind gift from D. Rowe), Nestin-GFP (Mignone et al., 2004) and periostin knockout mice (kind gift from Juerg Huelsken) were used for these experiments. NOD SCID interleukin (IL)-2 receptor γ deficient (NSG) mice were purchased from Charles River Laboratories (Sulzfeld, Germany) and bred in our facility. All animal studies were approved by the local German government (Regierungspräsidium Darmstadt) in Hessen, Germany, and by the Institutional Animal Care and Use Committee (IACUC) of Boston University.
(§1) 0.5 mg/kg/d or 0.05 mg/kg/d of warfarin, resuspended in phosphate-buffered saline was administered to mice via subcutaneously implanted osmotic minipumps (ALZET minipumps, Cupertino, CA). The osmotic minipumps were changed after 14 days (if the experiment went beyond 14 days of treatment). Sham operated (skin incision and suture) mice served as controls. Warfarin treatment continued for 10-14 days. In the xenotransplantation experiments the mice were treated with warfarin via the drinking water (or normal drinking water) at a dose of 0.72 mg/100 ml for a total of 3 days a week (Pfeilschifter et al., 2011).

[2] = system: patients; assay: Peripheral blood counts of patients on VKA versus control patients; format: in vivo, human
From the text: For FIGS. 6C-6H: Data of patients on VKA were obtained from the French health care databases. Patients with hematological disease, inflammation or sepsis were excluded. Patients admitted to the hospital for dermatological problems without hematological disease or sepsis acted as controls.

[3] = system: human CD34+ cells; assay: Xenotransplantation of human CD34+ cells into warfarin-treated NSG mice; format: in vivo; details: warfarin- vs vehicle-treated NSG mice, 6 weeks after transplantation, P=0.015
Experimental: as §1
For the xenotransplantation experiments, we intravenously injected 1.3×10^5 human CD34+ cells, obtained via magnetic separation by magnetic beads (Miltenyi Biotech, Bergisch Gladbach, Germany) from BM filters used after harvest of non-mobilized HSPC from healthy allogeneic donors, into irradiated (250 cGy) NSG mice, which had previously been treated with vehicle or warfarin for 14 days.
We assessed the complete blood count of vehicle or warfarin-treated mice using a complete blood count analyzer (Scil Vet ABC, Gurnee, IL). […] Engraftment of human cells in NSG mice was assessed using anti-human CD45 (BD Biosciences, San José, CA).

[4] = system: wildtype mice; assay: Complete blood count and flow cytometry of peripheral blood and bone marrow of treated mice; format: in vivo; details: for absolute number of monocytes in peripheral blood / absolute number of leukocytes in peripheral blood: 14 days after initiation
Experimental: as §1
(§2) 5-fluorouracil was intraperitoneally injected every week at a dose of 75 mg/kg for a total of 4 doses or as a one time dose of 200 mg/kg. Recombinant mouse periostin (R&D Systems, Minneapolis, MN, cat. no. 2955-F2), produced in the Sf21 (baculovirus)-derived insect cell line, was administered intravenously at a dose of 2-4 μg per day and vitamin K was given at a dose of 15 mg/kg by oral gavage for four consecutive days.
We assessed the complete blood count of vehicle or warfarin-treated mice using a complete blood count analyzer (Scil Vet ABC, Gurnee, IL). Peripheral blood and bone marrow samples were stained with antibodies for flow cytometry, which was performed on a BD LSR Fortessa (BD Biosciences, Heidelberg, Germany). The lineage antibody cocktail contained antibodies to B220, CD5, Ter119, F4/80 and CD11b. Engraftment of human cells in NSG mice was assessed using anti-human CD45 (BD Biosciences, San José, CA).

[5] = system: wildtype mice; assay: Measurement of the INR of warfarin-treated mice; format: in vivo; details: only at 0.5 mg/kg, vs sham-operated control mice, P=0.009
Experimental: as §1
A Coaguchek XS (Roche Diagnostics, Mannheim, Germany) and Coaguchek XS PT test strips were used to determine the INR of vehicle- and warfarin-treated mice.

[6] = system: wildtype mice; assay: 5-fluorouracil-induced hematopoietic stress in warfarin-treated mice; format: in vivo
Experimental: as §1, §2

[7] = system: murine stroma cells; assay: Differentiation, gene expression and apoptosis of stroma and calvaria cells in presence of warfarin; format: cell-based
Experimental: Concentrations of drugs for in vitro use were 2 μM for warfarin, 2 μg/ml for periostin, 5 μM for the AKT inhibitor MK-2206 (Selleck Chemicals, Houston, TX) and cilengitide (Selleck Chemicals, Houston, TX, Cat. No. #S7077) was used at 0.05 μM. Phosphate buffered saline served as the vehicle control.
Bones from mice were crushed and plated and hematopoietic cells were removed the following day. As described (Mukherjee et al., 2008), after reaching confluence the stroma cells were cultured in α-MEM medium containing 10 mM β-glycerolphosphate, 10 nM dexamethasone and 50 μg/ml ascorbic acid for differentiation into osteoblastic cells (Mukherjee et al., 2008) or 500 nM insulin and 100 nM dexamethasone for differentiation into adipocytes. Differentiation was tested after 14-20 days by staining for von Kossa in the case of osteoblastic cells and Oil Red O in the case of adipocytes following standard staining protocols. Osteoclasts were purified from bone marrow macrophages, following standard protocols. Briefly, bone marrow cells were isolated from the femora and tibiae of 6-8 week old C57/B16 animals and cultured overnight at 37 C in α-MEM medium containing 10% fetal bovine serum and 1% antibiotic/antimycotic. The following day non-adherent cells were collected and separated by centrifugation on 50% Ficoll-Paque. Bone marrow-derived macrophages were seeded at 20,000 cells/well and cultured for 3 days in the presence of macrophage colony-stimulating factor (M-CSF) (50 ng/ml). On day 4 cells were also treated with receptor activator of nuclear factor kappa-B ligand (RANKL) (50 ng/ml) for an additional 4-5 days prior to tartrate-resistant acid phosphatase (TRAP) staining. Cells were treated with vehicle or warfarin (2 μM) for the entire culture period. […]
Quantitative PCR was performed using standard protocols.

For `CC(=O)CC(c1ccccc1)c1c(O)c2ccccc2oc1=O` (stereo not shown) [warfarin], which “number of Col2.3 kb+ osteoblastic cells” value [1] is on record?
Its value is “n.s. and no reduction”.

And the “number of Nestin+ MSC” value ([1]; P=0.047)?
The value was “significant reduction”.

What about the “absolute number of leukocytes” value ([2]; 282 patients on warfarin (P=0.0007) or 89 on fluindione (P=0.029) vs 145 control patients) of the same compound?
Its value is “significantly decreased”.

And the “absolute number of monocytes” value ([2]; 282 patients on warfarin (P=0.004) or 89 on fluindione (P=0.046) vs 145 control patients)?
Its value is “significantly decreased”.

And the percentage of eosinophils ([2]; 282 patients on warfarin vs 145 control patients, P=0.0027)?
The percentage of eosinophils was “significantly decreased”.

And the percentage of basophils ([2]; 282 patients on warfarin vs 145 control patients, P=0.007)?
Its percentage of basophils is “significantly decreased”.

What about the platelets ([2]; warfarin- or fluindione-treated patients) of the same compound?
The platelets was “not reduced”.

And the “engraftment of human CD45+ leukocytes” value [3]?
Its value is “reduced engraftment”.

And the “absolute count and percentage of LKS, LKS SLAM and myeloid progenitor cells in the bone marrow” value ([4]; 2 and 4 weeks, controls vs warfarin-treated mice)?
The value was “did not significantly differ”.

And the “time at which the decrease in leukocytes and monocytes appeared” value ([4]; after initiation of treatment)?
The value was “as early as three days”.

What about the “absolute number of monocytes in peripheral blood” value ([4]; higher dose (0.5 mg/kg), P=0.007) of the same compound?
Its value is “reduced”.

What about the “absolute number of leukocytes in peripheral blood” value ([4]; higher dose (0.5 mg/kg), P=0.008) of the same compound?
The value was “reduced”.

And the “absolute number of leukocytes in peripheral blood” value ([4]; lower dose (0.05 mg/kg))?
The value was “reduced”.

And the “absolute number of monocytes in peripheral blood” value ([4]; lower dose (0.05 mg/kg))?
Its value is “reduced”.

And the “leukocyte and monocyte counts, oral versus subcutaneous administration” value ([4]; oral versus subcutaneous)?
Its value is “similarly reduced”.

And the lethal hemorrhagic complications ([4]; subcutaneous versus oral treatment)?
Its lethal hemorrhagic complications is “fewer lethal hemorrhagic complications”.

And the lymphocyte count ([4]; warfarin-treated mice)?
The lymphocyte count was “decreased, albeit to a lesser extent than myeloid cells”.

And the “percentage of CD11b+ myeloid cells in peripheral blood” value ([4]; warfarin-treated vs control mice, P=0.003)?
The value was “decreased”.

What about the “international normalized ratio (INR)” value [5] of the same compound?
The value was “modest, but significant increase”.

What about the “leukocyte counts after 5-fluorouracil” value ([6]; 7 days after one-time dose of 200 mg/kg 5-fluorouracil, P=0.03) of the same compound?
Its value is “lower”.

And the survival ([6]; higher dose (0.5 mg/kg), 75 mg/kg 5-fluorouracil days 0, 7, 14, 21, P=0.0004 Log-rank)?
The survival was “similarly shortened”.

What about the survival ([6]; lower dose (0.05 mg/kg), 75 mg/kg 5-fluorouracil days 0, 7, 14, 21, P=0.02 Log-rank) of the same compound?
Its survival is “similarly shortened”.

What about the “apoptosis of stroma cells in vitro” value ([7]; P=0.05) of the same compound?
Its value is “modest, but significant increase”.

And the “differentiation of murine stroma cells to adipocytes and osteoblasts” value ([7]; in presence of warfarin)?
Its value is “significantly compromised”.

And the “relative expression of osteoblastic genes (Runx2, Alpl, Col1a1, Osx, Spp1, Bglap and others)” value ([7]; primary calvaria cells, warfarin vs vehicle)?
Its value is “significantly reduced”.

— patent US12162918B2, “Periostin compounds for the treatment of haematological complications” (Chemotherapeutisches Forschungsinstitut Georg-Speyer-Haus, priority 2018, dated 2024)
